Patent US20160250255A1, “METHODS FOR INDUCTION OF ANTIGEN-SPECIFIC REGULATORY T CELLS” (IMCYSE SA, priority 2013, published 2016)

Columns and labels:
APCs = assay: Capacity of NKT cells to induce apoptosis of APCs, peptide with modified CD1d binding motif; format: cell-based; details: W substituted at position P7 of the CD1d binding motif
Protocol: Modification of the core sequence of the CD1d binding motif is carried out by introducing a hydrophobic amino acid at position P7 of the motif and generates the peptide IAFRDN FIGLMYW [SEQ. ID NO: 3], in which W at position 7 increases the binding to the hydrophobic pocket of CD1d.

dendritic cells = assay: Induction of apoptosis of peptide-loaded dendritic cells by peptide-expanded NKT cells (annexin V binding); format: cell-based, C57BL/6 mice; details: NKT cells expanded with the peptide; FIG. 1, means of 2 experiments and SEM; negative control dendritic cells with no peptides
Protocol: Antigen-presenting cells (APC) are prepared from C57BL/6 mice and loaded with a peptide encompassing a CD1d-restricted NKT cell peptide epitope of hexon-6 capsid protein of adenovirus 5 vector used for gene therapy or gene vaccination.
Dendritic cells loaded with one of these peptides are then incubated with naïve CD62L+ CD4+ cells obtained from the spleen. After several cycles of stimulation, the capacity of NKT cells to induce apoptosis of the corresponding APC is measured and a comparison is established between peptides for their capacity to induce apoptosis.
The results shown in FIG. 1 (means of 2 experiments and SEM) indicate that NKT cells expanded with peptide of either SEQ. ID NO: 1 or SEQ. […] Negative controls include dendritic cells incubated with no peptides.

WEHI 231 cells = assay: Induction of apoptosis of B cell line WEHI 231 by peptide-expanded NKT cells; format: cell-based, BALB/c mice; details: WEHI 231 B cell line (H-2d) as APC; NKT cells elicited with the peptide; FIG. 3, means of 2 experiments and SEM
Description: FIG. 3 depicts similar experiments (means of 2 experiments and SEM) but using a B cell line (WEHI 231 cells). WEHI cells are derived from BALB/c mice (H-2d) and not from C57BL/6 mice (H-2b). The histo-incompatibility between the 2 strains prevents presentation of peptides designed for C57BL/6 mice by BALB/c MHC class II, but not presentation by the non-polymorphic CD1d molecule. […] ID NO: 1 or SEQ. ID NO: 2.

Row | Sequence | capacity of NKT cells to induce apoptosis of APCs (APCs) | apoptosis of dendritic cells, as measured by annexin V binding (dendritic cells) | induction of apoptosis (WEHI 231 cells)
1 | IAFRDNFIGLMYW (modified version of hexon 6 capsid protein) [SEQ. ID NO: 3] | further boosts the capacity of NKT cells to induce apoptosis of APCs |  | 
2 | IAFRDNFIGLMYY (fragment of hexon 6 capsis protein) [SEQ. ID NO: 1, amino acid residues 327 to 339 of the hexon-6 protein of adenovirus 5] |  | elicit apoptosis of dendritic cells | significant induction of apoptosis
3 | CHGCGGFIGLMYY (redutase motif + hexon 6 capsid protein) [SEQ. ID NO: 2, residues 333 to 339 of the hexon-6 protein containing a thioreductase motif (CxxC) within flanking residues (GG)] |  | elicit apoptosis of dendritic cells | significant induction of apoptosis
